Tested on: murine dermal fibroblasts
Assay: RNA-Seq of newborn murine dermal fibroblasts
Format: cell-based, mouse
Conditions: 10^−7 M, 24 h
Method: All animal studies followed guidelines outlined by the NIH Guide for the Care and Use of Laboratory Animals and protocols were approved by the Institutional Animal Care and Use Committee at the NIEHS or the UAB. […] Skin samples from newborn C57BL/6 mice were collected at the NIEHS. Dermal fibroblasts were isolated from the skin of newborn mice, 1–2 day old. Briefly, we followed the protocols described previously. The skin was washed in PBS, cut into smaller pieces and incubated in 2.4 U/ml of dispase II (Roche) overnight at 4 °C. The dermis was separated from the epidermis and incubated in 0.1% collagenase (Roche) at 4 °C overnight. […] Single cell suspension was prepared by pipetting and draining through a cell strainer. After centrifugation, cell pellets were suspended in DMEM medium containing 10% charcoal-stripped fetal bovine serum (cFBS), mouse fibroblasts growth factor (FGF) and 1% antibiotic, and inoculated into tissue culture dishes (Midwest Scientific, TPP). Cells, in early passages, from different mice were pooled together to provide representative samples for experiments. Fibroblasts were cultured in Petri dishes (10 cm in diameter) in DMEM and 10% cFBS and triplicate semi-confluent cultures were treated as described.
Triplicate cultures of murine fibroblasts were used for RNA isolation (RNAeasy Micro kit, Qiagen), the RNA samples were combined for each condition and at least 200 ng of RNA for each sample was used to create libraries for RNA sequencing by BGI Americas Corporation Service (Cambridge, MA)[67]. Quality of RNA and its concentration were determined using Agilent 2100.
The raw sequence FASTQ files were aligned to Gencode’s GRCm38 p4 Release M11 genome using STAR version 2.5.4b (parameters used: –outReadsUnmapped Fastx; –outSAMtype BAM SortedByCoordinate; –outSAMattributes All; –outFilterIntronMotifs RemoveNoncanonicalUnannotated)[69]. The abundance of transcripts was calculated from the alignments using Cufflinks version 2.2.1 (parameters used: –G; –L; –library-type fr-firststrand). Samples were merged using default parameters with Cuffmerge[70],[71]. The differential expression was calculated using Cuffdiff’s default parameters. The raw data have been deposited at the NCBI GEO (GSE145818).

`CC(C)CCC[C@](C)(O)[C@H]1CC[C@H]2[C@@H]3CC=C4C[C@@H](O)CC[C@]4(C)[C@H]3CC[C@@]21C` [20(OH)C, 20-hydroxycholesterol, reference compound] was tested, and the Adh7 expression level was 0.7754, the “Adh7 log2(fold_change) vs control” value was 1.595 and the Aqp11 expression level was 0.8073. The “Aqp11 log2(fold_change) vs control” value was 1.853, the Arid3b expression level was 0.9108 and the “Arid3b log2(fold_change) vs control” value was -1.9. For the same compound, the Bicd1 expression level was 0.39, the “Bicd1 log2(fold_change) vs control” value was -2.453 and the Btc expression level was 1.112. For the same compound, the “Btc log2(fold_change) vs control” value was 2.1992, the Car9 expression level was 1.738 and the “Car9 log2(fold_change) vs control” value was -2.435. For the same compound, the Cbs expression level was 0.5333, the “Cbs log2(fold_change) vs control” value was -1.867 and the Ccl4 expression level was 0.1695. The “Ccl4 log2(fold_change) vs control” value was -2.322, the Cd68 expression level was 2.992 and the “Cd68 log2(fold_change) vs control” value was 1.391. For the same compound, the Cd200 expression level was 0.446, the “Cd200 log2(fold_change) vs control” value was -1.664 and the Cherp expression level was 31.8463. The “Cherp log2(fold_change) vs control” value was -2.536, the Clec2g expression level was 0 and the “Clec2g log2(fold_change) vs control” value was “-inf”. The Cnnm4 expression level was 3.864, the “Cnnm4 log2(fold_change) vs control” value was -3.699 and the Cox15 expression level was 14.0674. The “Cox15 log2(fold_change) vs control” value was 1.269, the Cpa2 expression level was 0.3139 and the “Cpa2 log2(fold_change) vs control” value was -2.322. The Ctrl expression level was 0.4557, the “Ctrl log2(fold_change) vs control” value was -1.16 and the Dcun1d1 expression level was 3.938. For the same compound, the “Dcun1d1 log2(fold_change) vs control” value was -1.746, the Defb42 expression level was 0.3618 and the “Defb42 log2(fold_change) vs control” value was -1.335. The Dtx1 expression level was 0.6172, the “Dtx1 log2(fold_change) vs control” value was -1.429 and the Ehf expression level was 0.3171. For the same compound, the “Ehf log2(fold_change) vs control” value was -1.391, the Ercc2 expression level was 15.1049 and the “Ercc2 log2(fold_change) vs control” value was -3.489. The Erh expression level was 1.52, the “Erh log2(fold_change) vs control” value was -2.047 and the Fmnl1 expression level was 0.0589. For the same compound, the “Fmnl1 log2(fold_change) vs control” value was -3.9854, the Gys2 expression level was 0 and the “Gys2 log2(fold_change) vs control” value was “-inf”. The Hist1h2ab expression level was 1.148, the “Hist1h2ab log2(fold_change) vs control” value was 2 and the Hist1h2bg expression level was 0.5658. For the same compound, the “Hist1h2bg log2(fold_change) vs control” value was -2, the Hist1h2bh expression level was 0 and the “Hist1h2bh log2(fold_change) vs control” value was “-inf”. For the same compound, the Hist1h4c expression level was 0.4039, the “Hist1h4c log2(fold_change) vs control” value was -1 and the Isl1 expression level was 0.3429. For the same compound, the “Isl1 log2(fold_change) vs control” value was -1.227, the Krt19 expression level was 12.2793 and the “Krt19 log2(fold_change) vs control” value was 1.279. The Larp1b expression level was 3.613, the “Larp1b log2(fold_change) vs control” value was -2.853 and the Lhx6 expression level was 2.203. The “Lhx6 log2(fold_change) vs control” value was -2.404, the Lsm5 expression level was 0.8846 and the “Lsm5 log2(fold_change) vs control” value was -1.59. For the same compound, the M1ap expression level was 2.484, the “M1ap log2(fold_change) vs control” value was 2.0059 and the Med9os expression level was 0.3191. For the same compound, the “Med9os log2(fold_change) vs control” value was -2.7, the Nckipsd expression level was 8.765 and the “Nckipsd log2(fold_change) vs control” value was 1.073. The Nr3c2 expression level was 0.1285, the “Nr3c2 log2(fold_change) vs control” value was -3.098 and the Nr6a1 expression level was 0.3735. For the same compound, the “Nr6a1 log2(fold_change) vs control” value was -2.304, the Ntrk3 expression level was 0.3696 and the “Ntrk3 log2(fold_change) vs control” value was -2.33. The Parvg expression level was 0.09605, the “Parvg log2(fold_change) vs control” value was -3.946 and the Pde4dip expression level was 20.5427. The “Pde4dip log2(fold_change) vs control” value was -7.578, the Psd4 expression level was 0.1792 and the “Psd4 log2(fold_change) vs control” value was -3.129. For the same compound, the Ptpa expression level was 149.828, the “Ptpa log2(fold_change) vs control” value was 1.1778 and the Ptpn6 expression level was 1.723. For the same compound, the “Ptpn6 log2(fold_change) vs control” value was -2.798, the Rnu3a expression level was 0 and the “Rnu3a log2(fold_change) vs control” value was “-inf”. The Rpph1 expression level was 0.6576, the “Rpph1 log2(fold_change) vs control” value was -1 and the Rsad1 expression level was 1.413. The “Rsad1 log2(fold_change) vs control” value was -1.15, the Saa1 expression level was 0.1908 and the “Saa1 log2(fold_change) vs control” value was -2.322. The Samd12 expression level was 0.5476, the “Samd12 log2(fold_change) vs control” value was -2.717 and the Scn8a expression level was 0.2978. The “Scn8a log2(fold_change) vs control” value was -1.43, the Sgca expression level was 0.3806 and the “Sgca log2(fold_change) vs control” value was -1.697. The Slc15a4 expression level was 13.0176, the “Slc15a4 log2(fold_change) vs control” value was -2.132 and the Slc16a5 expression level was 0.4564. The “Slc16a5 log2(fold_change) vs control” value was -1.015, the Snhg9 expression level was 7.471 and the “Snhg9 log2(fold_change) vs control” value was -1.322. The St7 expression level was 21.7063, the “St7 log2(fold_change) vs control” value was -1.667 and the Stmn1 expression level was 6.2905. For the same compound, the “Stmn1 log2(fold_change) vs control” value was 2.02, the Susd1 expression level was 2.158 and the “Susd1 log2(fold_change) vs control” value was 1.637. For the same compound, the Syt8 expression level was 0.2562, the “Syt8 log2(fold_change) vs control” value was -3.638 and the Syt12 expression level was 1.318. The “Syt12 log2(fold_change) vs control” value was -1.636, the Tldc2 expression level was 0 and the “Tldc2 log2(fold_change) vs control” value was “-inf”. The Tnnc2 expression level was 0.1558, the “Tnnc2 log2(fold_change) vs control” value was -2.361 and the Unc5c expression level was 0.4963. The “Unc5c log2(fold_change) vs control” value was -1.133, the Wdr17 expression level was 0.677 and the “Wdr17 log2(fold_change) vs control” value was -1.73. The Zbtb18 expression level was 5.289, the “Zbtb18 log2(fold_change) vs control” value was -3.07 and the Zfp618 expression level was 2.236. The “Zfp618 log2(fold_change) vs control” value was -1.093, the “number of genes downregulated, FC ≥ 2” value was 498 and the “number of genes upregulated, FC ≥ 2” value was 564. For the same compound, the “number of genes solely downregulated” value (FC ≥ 2) was 109 (10.3%) and the “number of genes solely upregulated” value (FC ≥ 2) was 291 (19.4%).
